According to patent US20090253126A1, “Biomarker Detection Assays” (ASTRAZENECA AB, priority 2004, published 2009):

Key:
Math1 transcript = test: Detection of Math1 transcript by quantitative real-time PCR in duodenum of treated rats; type: in vivo; settings: at earlier time points and at lower dose; Han Wistar rats, intraperitoneally, bid for 5 days
Method: (§1) Using gene expression profiling we detected several deregulated factors that are consistent with Hes-1 KO data. We confirmed the up-regulation of ADN mRNA in intestinal tissue by DBZ and BZ treatment but not AS treatment. […] This up-regulation preceded the appearance of goblet cell metaplasia in the crypts.
(§2) Compounds with varying potency for modulating the Notch1 pathway and causing intestinal metaplasia were injected intraperitoneally into rats twice daily for 5 days at a concentration of 10 μmol/kg, 30 μmol/kg and 100 μmol/kg. A section of duodenum was taken from untreated rats and those treated with compound. Samples were immediately frozen in liquid nitrogen then placed in a freezer maintained at −80° C. for preservation. […]
(§3) Quantitative real-time PCR (QRT-PCR) was performed by creating a standard curve assaying the gene of interest at known cDNA quantities of 50 ng, 25 ng, 8.33 ng, 2.76 ng, 0.910 ng and 0.154 ng. […] Biosource International (Camarillo, Calif.) synthesized oligonucleotide primers and fluorescence resonance energy transfer (FRET) probes. […] The raw data were applied to the standard curve and quantities were extrapolated using Prism by GraphPad Software (San Diego, Calif.). These quantities were then transformed to express fold change relative to the vehicle control (VC).

Notch signal = settings: cited from earlier work
ADN mRNA = test: Gene expression profiling / QRT-PCR of adipsin (ADN) mRNA in intestinal tissue of treated rats; type: in vivo; settings: Han Wistar rats, intraperitoneally, 10, 30 and 100 μmol/kg/bid for 5 days
Method: as §1, §2, §3

In the case of `C[C@H](NC(=O)Cc1cc(F)cc(F)c1)C(=O)N[C@@H]1C(=O)N(C)c2ccccc2-c2ccccc21` [DBZ], the “induction of Math1 compared with ADN” value (Math1 transcript) is listed as “markedly higher than ADN”, the Notch signal interruption (Notch signal) is listed as “known to interrupt the Notch signal” and the “up-regulation of ADN mRNA in intestinal tissue” value (ADN mRNA) is listed as “up-regulation”.
